Assays:
Assay type in all cases: in vivo
barnyardgrass (Ec) [1] = test: Test Example 1: herbicidal effects by paddy field soil treatment; settings: 100 g of the active ingredient per 10 ares, 21st day after the application, index 0-5 of Table 47;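 also: grade of growth control; 5 = at least 90%; 4 = 70 to 90%; 3 = 50 to 70%; 2 = 30 to 50%; 1 = 10 to 30%; 0 = under 10%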
In short: (§1)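 Herbicidal effect was scored against a graded standard 21 days after treatment. Seeds were sown in puddled, leveled paddy soil flooded to 3 cm depth, and the active ingredient was applied at 100 g per 10 ares before greenhouse culture.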

bulrush (Sc) = test: as above; settings: 100 g of the active ingredient per 10 ares, 21st day after the application, index 0-5 of Table 47;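 also: grade of growth control; 5 = at least 90%; 4 = 70 to 90%; 3 = 50 to 70%; 2 = 30 to 50%; 1 = 10 to 30%; 0 = under 10%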
In short: as §1

monochoria (Mo) = test: as above; settings: 100 g of the active ingredient per 10 ares, 21st day after the application, index 0-5 of Table 47;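 also: grade of growth control; 5 = at least 90%; 4 = 70 to 90%; 3 = 50 to 70%; 2 = 30 to 50%; 1 = 10 to 30%; 0 = under 10%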
In short: as §1

Digitaria ciliaris (Di) = test: Test Example 2: herbicidal effects by upland field soil treatment; settings: 100 g of the active ingredient per 10 ares, evaluated on the 21st day after application;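 also: grade of growth control; 5 = at least 90%; 4 = 70 to 90%; 3 = 50 to 70%; 2 = 30 to 50%; 1 = 10 to 30%; 0 = under 10%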
Excerpt: (§2) (Test on Herbicidal Effects by Upland Field Soil Treatment)

barnyardgrass (Ec) [2] = test: as above; settings: 100 g of the active ingredient per 10 ares, evaluated on the 21st day after application
Excerpt: as §2

[3] = test system: common lambsquarters (Ch); test: as above; settings: 100 g of the active ingredient per 10 ares, evaluated on the 21st day after application
Excerpt: as §2

pale smartweed (Po) [4] = test: as above; settings: 100 g of the active ingredient per 10 ares, evaluated on the 21st day after application
Excerpt: as §2

rice flatsedge (Ci) [5] = test: as above; settings: 100 g of the active ingredient per 10 ares, evaluated on the 21st day after application
Excerpt: as §2

slender amaranth (Am) [6] = test: as above; settings: 100 g of the active ingredient per 10 ares, evaluated on the 21st day after application
Excerpt: as §2

Diaitaria ciliaris (Di) [7] = test: Test Example 3: herbicidal effects by upland field foliage treatment; set-up: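 grade of growth control; 5 = at least 90%; 4 = 70 to 90%; 3 = 50 to 70%; 2 = 30 to 50%; 1 = 10 to 30%; 0 = under 10%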; settings: 100 g active ingredient per 10 ares, evaluated 14th day after treatment
In short: (§3)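 Weeds were sown in sand-filled pots (surface area: 120 cm^2), covered with soil and grown in a greenhouse for 2 weeks before foliar treatment. Plants then stayed in the greenhouse, and herbicidal effect was scored against graded standards on the 14th day after treatment.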

barnyardgrass (Ec) [8] = test: as above; set-up: scale not given here; settings: 100 g active ingredient per 10 ares, evaluated 14th day after treatment
In short: as §3

[9] = test system: common lambsquarters (Ch); test: as above; set-up: scale not given here; settings: 100 g active ingredient per 10 ares, evaluated 14th day after treatment
In short: as §3

pale smartweed (Po) [10] = test: as above; set-up: scale not given here; settings: 100 g active ingredient per 10 ares, evaluated 14th day after treatment
In short: as §3

rice flatsedge (Ci) [11] = test: as above; set-up: scale not given here; settings: 100 g active ingredient per 10 ares, evaluated 14th day after treatment
In short: as §3

slender amaranth (Am) [12] = test: as above; set-up: scale not given here; settings: 100 g active ingredient per 10 ares, evaluated 14th day after treatment
In short: as §3

cotton (Go) = test: Test Example 4: crop plant selectivity by upland field soil treatment (cotton), phytotoxicity; set-up: scale not given here; settings: evaluated 21st day after application
In short: (§4)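 Seeds of cotton and several weed species were sown in sand-filled pots and covered with soil before soil treatment with the test compound. Plants were grown in a greenhouse, and herbicidal effect and crop phytotoxicity were scored against set standards 21 days after application.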

Diaitaria ciliaris (Di) [13] = test: Test Example 4: crop plant selectivity by upland field soil treatment (cotton), herbicidal effects; settings: evaluated 21st day after application
Experimental: (§5) (Test on Crop Plant Selectivity by Upland Field Soil Treatment)
In a plastic pot (surface area: 600 cm^2) filled with sand, cotton (Go), Diaitaria ciliaris (Di), green foxtail (Se), pale smartweed (Po), slender amaranth (Am), common lambsquarters (Ch) and China jute (Ab) were sown and covered with soil. […] The plants were then cultured in a green house, and the evaluation of the herbicidal effects and phytotoxicity was conducted on the 21st day after the application in accordance with the standards as identified in Table 47. Symbol—represents “not tested”.

China jute (Ab) [14] = test: as above; set-up: scale not given here; settings: evaluated 21st day after application
In short: as §4

[15] = test system: common lambsquarters (Ch); test: as above; set-up: scale not given here; settings: evaluated 21st day after application
In short: as §4

green foxtail (Se) [16] = test: as above; set-up: scale not given here; settings: evaluated 21st day after application
In short: as §4

pale smartweed (Po) [17] = test: as above; set-up: scale not given here; settings: evaluated 21st day after application
In short: as §4

slender amaranth (Am) [18] = test: as above; set-up: scale not given here; settings: evaluated 21st day after application
In short: as §4

soybean (Gl) = test: Test Example 6: crop plant selectivity by upland field soil treatment (soybean), phytotoxicity; set-up: scale not given here; settings: dose 1.6 g ai/10a, 21st day after application
In short: (§6)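 Soybean and weeds sown in sand-filled pots and covered with soil, then treated by soil application. Plants grown in a greenhouse, with herbicidal effect and crop phytotoxicity scored on day 21 after application against a fixed rating scale.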

Diaitaria ciliaris (Di) [19] = test: Test Example 6: crop plant selectivity by upland field soil treatment (soybean), herbicidal effects; settings: dose 1.6 g ai/10a, 21st day after application
Experimental: as §5
(§7) In a plastic pot (surface area: 600 cm^2) filled with sand, soybean (Gl), Diaitaria ciliaris (Di), green foxtail (Se), Johnsongrass (So), pale smartweed (Po), slender amaranth (Am), common lambsquarters (Ch) and China jute (Ab) were sown and covered with soil. […] The plants were then cultured in a green house, and the evaluation of the herbicidal effects and phytotoxicity was conducted on the 21st day after the application in accordance with the standards as identified in Table 47. Symbol—represents “not tested”.

Johnsongrass (So) = test: as above; settings: dose 1.6 g ai/10a, 21st day after application
Experimental: as §5, §7

China jute (Ab) [20] = test: as above; set-up: scale not given here; settings: dose 1.6 g ai/10a, 21st day after application
In short: as §6

[21] = test system: common lambsquarters (Ch); test: as above; set-up: scale not given here; settings: dose 1.6 g ai/10a, 21st day after application
In short: as §6

green foxtail (Se) [22] = test: as above; set-up: scale not given here; settings: dose 1.6 g ai/10a, 21st day after application
In short: as §6

pale smartweed (Po) [23] = test: as above; set-up: scale not given here; settings: dose 1.6 g ai/10a, 21st day after application
In short: as §6

slender amaranth (Am) [24] = test: as above; set-up: scale not given here; settings: dose 1.6 g ai/10a, 21st day after application
In short: as §6

`CCc1cc2c(-c3cn(C)c(C(F)(F)F)cc3=O)c(F)cc(Cl)c2o1` [Compound 9-2] was tested, and the “Herbicidal effects Ec” value (barnyardgrass (Ec) [1]) was 5, the “Herbicidal effects Sc” value (bulrush (Sc)) was 5 and the “Herbicidal effects Mo” value (monochoria (Mo)) was 5. For the same molecule, the “Herbicidal effects Di” value (Digitaria ciliaris (Di)) was 5, the “Herbicidal effects Ec” value (barnyardgrass (Ec) [2]) was 5 and the “Herbicidal effects Ch” value [3] was 5. The “Herbicidal effects Po” value (pale smartweed (Po) [4]) was 5, the “Herbicidal effects Ci” value (rice flatsedge (Ci) [5]) was 5 and the “Herbicidal effects Am” value (slender amaranth (Am) [6]) was 5. For the same molecule, the “Herbicidal effects Di” value (Diaitaria ciliaris (Di) [7]) was 5, the “Herbicidal effects Ec” value (barnyardgrass (Ec) [8]) was 5 and the “Herbicidal effects Ch” value [9] was 5. For the same molecule, the “Herbicidal effects Po” value (pale smartweed (Po) [10]) was 5, the “Herbicidal effects Ci” value (rice flatsedge (Ci) [11]) was 5 and the “Herbicidal effects Am” value (slender amaranth (Am) [12]) was 5. The “Phytotoxicity Go” value (cotton (Go); dose 1.6 g ai/10 a) was 0, the “Phytotoxicity Go” value (cotton (Go); dose 6.3 g ai/10 a) was 0 and the “Herbicidal effects Di” value (Diaitaria ciliaris (Di) [13]; dose 1.6 g ai/10 a) was 5. For the same molecule, the “Herbicidal effects Di” value (Diaitaria ciliaris (Di) [13]; dose 6.3 g ai/10 a) was 5, the “Herbicidal effects Ab” value (China jute (Ab) [14]; dose 1.6 g ai/10 a) was 5 and the “Herbicidal effects Ab” value (China jute (Ab) [14]; dose 6.3 g ai/10 a) was 5. For the same molecule, the “Herbicidal effects Ch” value ([15]; dose 1.6 g ai/10 a) was 5, the “Herbicidal effects Ch” value ([15]; dose 6.3 g ai/10 a) was 5 and the “Herbicidal effects Se” value (green foxtail (Se) [16]; dose 1.6 g ai/10 a) was 5. For the same molecule, the “Herbicidal effects Se” value (green foxtail (Se) [16]; dose 6.3 g ai/10 a) was 5, the “Herbicidal effects Po” value (pale smartweed (Po) [17]; dose 1.6 g ai/10 a) was 5 and the “Herbicidal effects Po” value (pale smartweed (Po) [17]; dose 6.3 g ai/10 a) was 5. The “Herbicidal effects Am” value (slender amaranth (Am) [18]; dose 1.6 g ai/10 a) was 5, the “Herbicidal effects Am” value (slender amaranth (Am) [18]; dose 6.3 g ai/10 a) was 5 and the “Phytotoxicity Gl” value (soybean (Gl)) was 1. For the same molecule, the “Herbicidal effects Di” value (Diaitaria ciliaris (Di) [19]) was 5, the “Herbicidal effects So” value (Johnsongrass (So)) was 5 and the “Herbicidal effects Ab” value (China jute (Ab) [20]) was 5. The “Herbicidal effects Ch” value [21] was 5, the “Herbicidal effects Se” value (green foxtail (Se) [22]) was 5 and the “Herbicidal effects Po” value (pale smartweed (Po) [23]) was 5. The “Herbicidal effects Am” value (slender amaranth (Am) [24]) was 5.
